Test results: PubChem BioAssay (NCI)
Several values for one entry are separate records, joined by “and”; a condition that tells them apart may be missing. Equal entries are not always repeated.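 Test compounds were applied to cells in 96-well plates for 48 hours at 5 doses. GI50 is the concentration that inhibits growth by half. At the TGI there is no net growth.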

What was measured:
Assay in all cases: NCI-60 cell line screen, 48 h
[1] = test system: LOX IMVI melanoma
[2] = test system: SK-OV-3 ovarian
[3] = test system: EKVX NSCLC
[4] = test system: UACC-257 melanoma
[5] = test system: NCI-H226 lung
[6] = test system: OVCAR-4 ovarian
[7] = test system: HT29 colon
[8] = test system: OVCAR-3 ovarian
[9] = test system: NCI-H522 lung
[10] = test system: A549 NSCLC

SMILES | GI50 [1] [µM] | TGI [1] | GI50 [2] | TGI [2] [µM] | GI50 [3] | TGI [3] | GI50 [4] | TGI [4] | GI50 [5] | TGI [5] [µM] | GI50 [6] | TGI [6] | GI50 [7] | TGI [7] [µM] | GI50 [8] | TGI [8] | GI50 [9] | TGI [9] [µM] | GI50 [10] | TGI [10]
O=C(NN1C(=O)CSC12CCCC2)c1[nH]c2ccc(Br)cc2c1-c1ccccc1 | 45.5 | > 100 µM | > 100 µM | > 100 | > 100000 nM | > 100 µM | > 100 µM | > 100 µM | > 100 µM | > 100 | 24.7 µM | > 100 µM | 30700 nM | > 100 | 18.8 µM | 56.7 µM | 30.4 µM | > 100 | 35500 nM | > 100 µM
COc1ccc(/C=C\c2cc(OC)c(OC)c(OC)c2)cc1OC | 0.0829 | 40.4 µM and 17.7 µM | 0.187 µM | > 100 | 333 nM | 40.4 µM and > 100 µM | 6.09 µM | 40.4 µM and > 100 µM | 0.297 µM |  | 11.6 µM | 40.4 µM and > 100 µM | 43 nM | 31.4 | 0.0543 µM | 0.256 µM and 0.801 µM | 0.154 µM |  | 211 nM | 40.4 µM and > 100 µM
CC1(C)CC(C)(C)C1=NNC(N)=O |  | > 100 µM |  | > 100 |  | > 100 µM |  | > 100 µM |  | > 100 |  | > 100 µM |  | > 100 |  | > 100 µM |  | > 100 |  | > 100 µM
C[C@]12CC[C@H]3[C@@H](CC[C@]4(O)C[C@@H](O)CC[C@]34/C=N/O)[C@@]1(O)CC[C@@H]2C1=COC(=O)C1 |  | 0.489 µM |  | 0.403 |  | 0.344 µM |  | 1.62 µM |  | 1.35 |  | 0.279 µM |  | 0.594 |  | 0.349 µM |  | 0.371 |  | 0.115 µM
COc1cccc(-n2ncc3c(N/N=C/c4ccncc4)ncnc32)c1 | 1.01 | > 25 µM | 1.7 µM | > 25 | > 25000 nM | > 25 µM | > 25 µM | > 25 µM | > 6.17 µM | > 25 | > 25 µM | > 25 µM | 2240 nM | > 25 | 1.9 µM | > 25 µM | > 14.5 µM | > 25 | > 14500 nM | > 25 µM
C/C=C(\C)C(=O)O[C@H]1C=CC(=O)O[C@@H]1CC[C@H](O)[C@H](C)O | 27.5 | > 78.7 µM | > 100 µM | > 100 | 73900 nM | > 100 µM | 80.9 µM | > 100 µM | 47.4 µM | > 100 | 41.6 µM | 97.5 µM | 30600 nM | 97.5 | 36.5 µM | > 100 µM | 18 µM | 43.4 | > 75100 nM | > 100 µM
O=C(NC[C@H](O)CO)c1ccncc1Nc1ccc(I)cc1F |  | > 10 µM and 22.4 µM | > 4.46 µM and 26.2 µM | > 100 | 194 nM and 313 nM | > 100 µM | 0.00359 µM and < 0.01 µM | 0.0403 µM and 0.0438 µM | > 6.36 µM and 1.4 µM | > 100 | > 7.46 µM and 10.6 µM | > 100 µM | 4.09 nM and < 11 nM | > 38.7 | > 10 µM and 20.1 µM | > 100 µM | 4.95 µM and 33.2 µM | > 100 | 694 nM and 1790 nM | > 75.8 µM
